Experimental data as given in ChEMBL document CHEMBL1155466, “Structure-activity relationships of 6-methyl-benzo[b]thiophene-2-carboxylic acid (1-[(S)-1-benzyl-4-[4-(tetrahydropyran-4-ylmethyl)piperazin-1-yl]butylcarbamoyl]cyclopentyl)amide, potent antagonist of the neurokinin-2 receptor” (J Med Chem, 2010).

Assays:
Substance-K receptor = target: T1, Substance-K receptor (Homo sapiens, UniProt P21452); test: Displacement of [3H]neurokinin A from human NK2 receptor
T1 sequence (P21452 whole entry): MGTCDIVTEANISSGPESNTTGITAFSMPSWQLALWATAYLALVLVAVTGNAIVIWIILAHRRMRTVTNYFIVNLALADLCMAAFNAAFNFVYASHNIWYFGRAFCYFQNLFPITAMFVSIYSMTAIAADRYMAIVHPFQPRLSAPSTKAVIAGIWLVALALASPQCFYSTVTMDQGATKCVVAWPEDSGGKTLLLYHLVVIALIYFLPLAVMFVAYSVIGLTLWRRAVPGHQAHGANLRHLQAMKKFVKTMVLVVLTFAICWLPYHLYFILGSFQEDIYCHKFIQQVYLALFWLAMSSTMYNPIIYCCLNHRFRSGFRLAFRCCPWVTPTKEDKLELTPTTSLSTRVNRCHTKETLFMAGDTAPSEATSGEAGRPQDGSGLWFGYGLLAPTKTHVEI

Cavia porcellus = test: Inhibition of [beta-Ala8]NKA(4-10)-induced colonic contractions in Dunkin-Hartley guinea pig at 3 umol/kg, iv after 4 hrs relative to control; format: functional
[1] = target: T2, Substance-K receptor (Cavia porcellus) (UniProt Q64077); test: Antagonist activity at NK2 receptor in Dunkin-Hartley guinea pig colon smooth muscle assessed as inhibition of [beta-Ala8]NKA(4-10)-induced tissue contraction in presence of NK1 receptor antagonist SR-140333; format: functional, tissue-based
T2 sequence (whole entry): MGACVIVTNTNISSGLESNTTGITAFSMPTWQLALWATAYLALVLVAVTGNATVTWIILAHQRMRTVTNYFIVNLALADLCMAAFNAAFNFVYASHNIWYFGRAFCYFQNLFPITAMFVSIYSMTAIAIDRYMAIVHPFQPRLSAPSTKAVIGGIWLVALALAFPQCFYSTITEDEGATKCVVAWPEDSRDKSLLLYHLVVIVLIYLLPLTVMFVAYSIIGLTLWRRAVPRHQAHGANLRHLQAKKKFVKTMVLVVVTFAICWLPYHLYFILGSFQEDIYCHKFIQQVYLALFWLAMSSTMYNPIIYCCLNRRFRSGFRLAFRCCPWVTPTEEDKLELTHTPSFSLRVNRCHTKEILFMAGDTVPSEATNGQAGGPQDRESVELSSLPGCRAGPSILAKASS

| SMILES | Ki (Substance-K receptor) [nM] | Imax (Cavia porcellus) [%] | pKb [1] |
| --- | --- | --- | --- |
| Cc1ccc2cc(C(=O)NC3(C(=O)N[C@@H](CCCN4CCN(S(N)(=O)=O)CC4)Cc4ccccc4)CCCC3)sc2c1 | 0.631 | 62 | 7.8 |
| Cc1ccc2cc(C(=O)NC3(C(=O)N[C@@H](CCC(=O)N4CCC(N5CCOCC5)CC4)Cc4ccccc4)CCCC3)sc2c1 | 2 |  | 7.8 |
| Cc1ccc2cc(C(=O)NC3(C(=O)N[C@@H](CCCN4CCN(C(=O)C5CCOCC5)CC4)Cc4ccccc4)CCCC3)sc2c1 |  | 97 | 8.1 |
| Cc1ccc2cc(C(=O)NC3(C(=O)N[C@@H](CCCN4CCC(N5CCOCC5)CC4)Cc4ccccc4)CCCC3)sc2c1 | 0.501 |  | 7.8 |
| Cc1ccc2cc(C(=O)NC3(C(=O)N[C@@H](CCC(=O)N4CCN(C5CCOCC5)CC4)Cc4ccccc4)CCCC3)sc2c1 | 0.0794 | 99 | 8.2 |
| O=C(NC1(C(=O)N[C@@H](CCCN2CCN(CC3CCOCC3)CC2)Cc2ccccc2)CCCC1)c1cc2ccccc2s1 | 0.251 | 82 | 8.2 |
| Cc1ccc2cc(C(=O)NC3(C(=O)N[C@@H](CCCN4CCN(S(=O)(=O)N(C)C)CC4)Cc4ccccc4)CCCC3)sc2c1 | 0.316 | 80 | 7.9 |
| Cc1ccc2cc(C(=O)NC3(C(=O)N[C@@H](CCCN4CCN(Cc5cccnc5)CC4)Cc4ccccc4)CCCC3)sc2c1 | 0.316 | 84 | 8.2 |
| Cc1ccc2cc(C(=O)NC3(C(=O)N[C@@H](COCCC4CCN(CC5CCOCC5)CC4)Cc4ccccc4)CCCC3)sc2c1 |  |  | 6.9 |
| Cl.N[C@@H](CCC(=O)N1CCN(CC2CCOCC2)CC1)Cc1ccccc1 | 0.0794 | 99 | 7.9 |
| Cc1ccc2cc(C(=O)NC3(C(=O)N[C@@H](CCCN4CCN(S(=O)(=O)N5CCOCC5)CC4)Cc4ccccc4)CCCC3)sc2c1 | 0.501 | 97 | 8.4 |
| Cc1ccc2cc(C(=O)NC3(C(=O)N[C@@H](CCCN4CCN(C=O)CC4)Cc4ccccc4)CCCC3)sc2c1 | 2 |  | 7.8 |
| Cc1ccc2cc(C(=O)NC3(C(=O)N[C@@H](CCCN4CCN(C(=O)c5cccn5C)CC4)Cc4ccccc4)CCCC3)sc2c1 | 0.398 | 100 | 8.2 |
| Cc1ccc2cc(C(=O)NC3(C(=O)N[C@@H](CCCN4CCN(Cc5ccccn5)CC4)Cc4ccccc4)CCCC3)sc2c1 | 0.158 | 90 | 7.9 |
| Cc1ccc2cc(C(=O)NC3(C(=O)N[C@@H](CCCN4CCN(C5CCOCC5)CC4)Cc4ccccc4)CCCC3)sc2c1 | 0.251 | 100 | 8.1 |
| Cc1ccc2cc(C(=O)NC3(C(=O)N[C@@H](/C=C/CN4CCN(CC5CCOCC5)CC4)Cc4ccccc4)CCCC3)sc2c1 | 0.501 | 72 | 8.2 |
| Cc1ccc2cc(C(=O)NC3(C(=O)N[C@@H](CCCN4CCN(Cc5ccncc5)CC4)Cc4ccccc4)CCCC3)sc2c1 | 0.251 | 86 | 8.4 |
| Cc1ccc2cc(C(=O)NC3(C(=O)N[C@@H](CCCC4CCN(CC5CCOCC5)CC4)Cc4ccccc4)CCCC3)sc2c1 |  | 67 | 7.9 |
| Cc1ccc2cc(C(=O)NC3(C(=O)N[C@H](Cc4ccccc4)CN4CCN(CC5CCOCC5)CC4)CCCC3)sc2c1 | 2 |  | 7.6 |
| Cc1ccc2cc(C(=O)NC3(C(=O)N[C@H](CCCN4CCN(CC5CCOCC5)CC4)Cc4ccccc4)CCCC3)sc2c1 | 0.631 |  | 7.7 |
| CO/N=C(\N1CCOCC1)N1CCN(CCC[C@@H](Cc2ccccc2)NC(=O)C2(NC(=O)c3cc4ccc(C)cc4s3)CCCC2)CC1 |  | 100 |  |

| SMILES | Ki (Substance-K receptor) [nM] | Imax (Cavia porcellus) [%] | pKb [1] |
| --- | --- | --- | --- |
| Cc1ccc2cc(C(=O)NC3(C(=O)N[C@@H](CCCN4CCN(Cc5cccs5)CC4)Cc4ccccc4)CCCC3)sc2c1 | 0.158 | 83 | 7.7 |
| Cc1ccc2cc(C(=O)NC3(C(=O)N[C@@H](CCCN4CCN(C(=O)N5CCOCC5)CC4)Cc4ccccc4)CCCC3)sc2c1 | 0.398 | 85 | 8.3 |
| Cc1ccc2cc(C(=O)NC3(C(=O)N[C@@H](CCCN4CCC(CN5CCOCC5)CC4)Cc4ccccc4)CCCC3)sc2c1 | 1 | 62 | 7.8 |
| Cc1ccc2cc(C(=O)NC3(C(=O)N[C@@H](CCCN4CCN(c5ncccn5)CC4)Cc4ccccc4)CCCC3)sc2c1 | 0.794 | 63 | 8 |
| Cc1ccc2cc(C(=O)NC3(C(=O)N[C@@H](CCCN4CCC(CCO)CC4)Cc4ccccc4)CCCC3)sc2c1 | 2 | 47 | 8.1 |
| CC/N=C(\N1CCOCC1)N1CCN(CCC[C@@H](Cc2ccccc2)NC(=O)C2(NC(=O)c3cc4ccc(C)cc4s3)CCCC2)CC1 | 0.794 |  | 8 |
| Cc1ccc2cc(C(=O)NC3(C(=O)N[C@@H](CCCN4CCN(Cc5ccc(F)cc5)CC4)Cc4ccccc4)CCCC3)sc2c1 | 0.126 | 66 | 8.2 |
| Cc1ccc2cc(C(=O)NC3(C(=O)N[C@@H](CCCN4CCN(Cc5cnc[nH]5)CC4)Cc4ccccc4)CCCC3)sc2c1 | 1 |  |  |
| Cc1ccc2cc(C(=O)NC3(C(=O)N[C@@H](CCCN4CCN(Cc5c[nH]cn5)CC4)Cc4ccccc4)CCCC3)sc2c1 |  | 83 | 8 |
| Cc1ccc2cc(C(=O)NC3(C(=O)N[C@@H](CCCN4CCN(c5ccccn5)CC4)Cc4ccccc4)CCCC3)sc2c1 | 0.631 | 76 | 7.8 |
| Cc1ccc2cc(C(=O)NC3(C(=O)N[C@@H](CCCN4CCN(Cc5ccoc5)CC4)Cc4ccccc4)CCCC3)sc2c1 | 0.158 | 67 | 8.2 |
| Cc1ccc2cc(C(=O)NC3(C(=O)N[C@@H](COCC4CCN(CC5CCOCC5)CC4)Cc4ccccc4)CCCC3)sc2c1 | 0.631 | 46 | 7.6 |
| Cc1ccc2cc(C(=O)NC3(C(=O)N[C@@H](CCCN4CCC(C(=O)N5CCOCC5)CC4)Cc4ccccc4)CCCC3)sc2c1 | 0.794 | 81 | 7.8 |
| Cc1ccc2cc(C(=O)NC3(C(=O)N[C@@H](CCCN4CCN(S(=O)(=O)C(C)C)CC4)Cc4ccccc4)CCCC3)sc2c1 | 0.501 | 85 | 7.9 |
| Cc1ccc2cc(C(=O)NC3(C(=O)N[C@@H](CCCN4CCC(N(C)C5CCOCC5)CC4)Cc4ccccc4)CCCC3)sc2c1 | 1.26 |  | 7.8 |
| Cc1ccc2cc(C(=O)NC3(C(=O)N[C@@H](CCCN4CCN(Cc5ccsc5)CC4)Cc4ccccc4)CCCC3)sc2c1 | 0.158 | 88 | 8.2 |
| Cc1ccc2cc(C(=O)NC3(C(=O)N[C@@H](CCCN4CCN(Cc5nnn(C)n5)CC4)Cc4ccccc4)CCCC3)sc2c1 | 0.316 | 72 | 7.9 |
| CCOCCCN1CCN(CCC[C@@H](Cc2ccccc2)NC(=O)C2(NC(=O)c3cc4ccc(C)cc4s3)CCCC2)CC1 | 0.316 |  | 7.2 |
| CCS(=O)(=O)N1CCN(CCC[C@@H](Cc2ccccc2)NC(=O)C2(NC(=O)c3cc4ccc(C)cc4s3)CCCC2)CC1 | 0.631 | 77 | 8 |
| Cc1ccc2cc(C(=O)NC3(C(=O)N[C@@H](CCN4CCN(CC5CCOCC5)CC4)Cc4ccccc4)CCCC3)sc2c1 | 15.8 |  |  |
